The test system of assay [1] is HEK 293 cells. Kind of assay: CAR surface expression by Protein L staining, dose and time dependence. The class given is cell-based. The settings on record: OT-CD19-053 in HEK 293 cells, 24 hours of ligand. The procedure:
The dose dependent regulation of OT-CD19-052 and OT-CD19-053 was measured in HEK 293 cells transfected with 2 ug DNA and stably selected using 2 ug/ml puromycin.
Cells were also treated with ligand for varying durations of time with ligand concentrations shown in Table 45C and Protein L expression was measured using FACS.

The subject of assay [2] is NIH 3T3 cells. Kind of assay: Western blot analysis using a GFP antibody, hPDE5 C terminal mutants. The settings on record: hPDE5 mutant construct, 24 hours and 48 hours, vs untreated cells.
From the text: All comparisons were made against cells that were not treated with either ligand.
In assay [3] the test system is HEK293T cells. Description: Effect of linker on DD regulation of IL15-IL15Ra, FACS using the HA antibody. Conditions: for Stabilization ratio: 1 μM Vardenafil vs DMSO control; for % HA positive cells, Vardenafil: 1 μM Vardenafil, 24 hours; for % HA positive cells, Control: DMSO control. The class given is cell-based. The procedure:
The effect of the type of linker used and the length of the linker on the regulation of the expression of the payload was tested. IL15-IL15Ra fusion constructs were linked to the hPDE5 (R732L) DD using GSGSGS (SEQ ID NO. 8330) as the linker (as in OT-IL15-111), or […] (SEQ ID NO. 8331) as the linker (as in OT-IL15-112) or using […] (SEQ ID NO. 8332) as the linker (as in OT-IL15-113). The IL15 portion of the construct was tagged with a Flag tag while the IL15Ra portion was tagged with a HA tag. These tags allow both the components of the construct to be tracked individually in experiments. […] The properties of the DDs regulated IL15-IL15Ra payloads were analyzed in the presence and absence of ligands via FACS using the HA antibody as previously described.

The record followed here is US11666642B2, “PDE5 compositions and methods for immunotherapy” (Obsidian Therapeutics, Inc., priority 2017, dated 2023).

Turning to `CCCc1nn(C)c2c(=O)[nH]c(-c3cc(S(=O)(=O)N4CCN(C)CC4)ccc3OCC)nc12` [Sildenafil], in assay [1], the EC50 (as a rule, the concentration that produces a half-maximal response) turned out to be 1500 nM. The “GFP protein levels by western blot” value in assay [2] (0.1 μM ligand) is listed as “modest stabilization of GFP protein levels”; in assay [2] (1 μM ligand), “stabilization of GFP increased”.
In assay [1] (Homo sapiens, HEK293), `CCCc1nc(C)c2c(=O)[nH]c(-c3cc(S(=O)(=O)N4CCN(CC)CC4)ccc3OCC)nn12` [Vardenafil] returned an EC50 of 25 nM.
In the case of “OT-IL15-111: IL15-IL15Ra fusion linked to hPDE5 (R732L) DD using GSGSGS linker”, in assay [3], the Stabilization ratio came out at 1.69; the “% HA positive cells, Vardenafil” value worked out at 63.2%; the “% HA positive cells, Control” value stood at 37.5%.
As for “OT-IL15-112: IL15-IL15Ra fusion linked to hPDE5 (R732L) DD using GSGSGSGS linker”, in assay [3], the “% HA positive cells, Vardenafil” value was 74.6% and the “% HA positive cells, Control” value came to 41.6%.
For “OT-IL15-113: IL15-IL15Ra fusion linked to hPDE5 (R732L) DD using GSGSGGGSGS linker”, in assay [3], the Stabilization ratio stood at 1.65; the “% HA positive cells, Vardenafil” value was found to be 69.1%; the “% HA positive cells, Control” value was found to be 42%.
